# From the supplement of paper PMC11208160
# Test: recombinant UMI read abundance after kanamycin selection (control-corrected) (log10(CPM+1)); higher = more efficient recombination; extreme values may be limits of the assay; sequences stand for … in AGTGCAGAGAAAATCGGCCAGTTTTCTCTGCCTGCAGTCCGCATGCCGTGGGACCCCTTGGGTTCTAACCTGTTGCCTAGATTTATGCAGCGGACTGCCTTTCTCCCAAAGTGATAAACCGG…AGGTTGGTTTCACT; site = the 11-nt donor
# Summary of the method: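 In a pooled Escherichia coli screen for the IS621 bridge recombinase, donor and donor-binding-loop pairs were each placed with a 12-nt UMI on a plasmid bearing a promoterless kanamycin gene. This library was co-electroporated with a target plasmid encoding a fixed target and T7-inducible recombinase, and cells were plated either on IPTG (0.07 mM) plus kanamycin or without selection, in two replicates each. Recombinant UMIs were PCR-amplified across the donor–target junction and sequenced, and counts were converted to CPM, averaged over replicates, scaled by control-derived factors and reported as log10(CPM+1).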
row,Sequence,recombinant UMI read abundance (log10)
1,TCCATTTCATGGACCGGTTTTCCCGGTAATCCGTATTTGCC (site TCCAGTTCTGG),0
2,TCCCAATCATGGACCGGTTTTCCCGGTAATCCGTATTTGTG (site TCCCAATCTCA),0.00796
3,TCCCACCCATGGACCGGTTTTCCCGGTAATCCGTATTTGAG (site TCCCACCCTCT),0.00907
4,TCCCATCCATGGACCGGTTTTCCCGGTAATCCGTATTTGGC (site TCCCATCCTGC),0
5,TCCCCAACATGGACCGGTTTTCCCGGTAATCCGTATTTGTC (site TCCCCAACTGA),0
6,TCCCCTGCATGGACCGGTTTTCCCGGTAATCCGTATTTGAT (site TCCCCTGCTAT),0.00458
7,TCCCGACCATGGACCGGTTTTCCCGGTAATCCGTATTTGAG (site TCCCGACCTCT),0.00764
8,TCCCGGACATGGACCGGTTTTCCCGGTAATCCGTATTTGTC (site TCCCGGACTGA),0.905
9,TCCCGTTCATGGACCGGTTTTCCCGGTAATCCGTATTTGAA (site TCCCGTTCTTT),0
10,TCCCTACCATGGACCGGTTTTCCCGGTAATCCGTATTTGAT (site TCCCTACCTAT),0
11,TCCCTTCCATGGACCGGTTTTCCCGGTAATCCGTATTTGAG (site TCCCTTCCTCT),0.0101
12,TCCGATGCATGGACCGGTTTTCCCGGTAATCCGTATTTGTT (site TCCGATGCTAA),0
13,TCCGGGCCATGGACCGGTTTTCCCGGTAATCCGTATTTGAC (site TCCGGGCCTGT),0
14,TCCGTCCCATGGACCGGTTTTCCCGGTAATCCGTATTTGCA (site TCCGTCCCTTG),0
15,TCCTAATCATGGACCGGTTTTCCCGGTAATCCGTATTTGTT (site TCCTAATCTAA),0
16,TCCTAGACATGGACCGGTTTTCCCGGTAATCCGTATTTGGG (site ACCTAGACTCC),0.034
17,TCCTAGACATGGACCGGTTTTCCCGGTAATCCGTATTTGGG (site CCCTAGACTCC),0.0212
18,TCCTAGACATGGACCGGTTTTCCCGGTAATCCGTATTTGGG (site GCCTAGACTCC),0.0199
19,TCCTAGACATGGACCGGTTTTCCCGGTAATCCGTATTTGGG (site TCCTAGACTCC),0.00458
20,TCCTAGTCATGGACCGGTTTTCCCGGTAATCCGTATTTGTA (site TCCTAGTCTTA),0.256
21,TCCTATACATGGACCGGTTTTCCCGGTAATCCGTATTTGGA (site TCCTATACTTC),0.0113
22,TCCTCATCATGGACCGGTTTTCCCGGTAATCCGTATTTGGA (site TCCTCATCTTC),0.00521
23,TCCTTATCATGGACCGGTTTTCCCGGTAATCCGTATTTGTT (site TCCTTATCTAA),0
24,TCCTTTGCATGGACCGGTTTTCCCGGTAATCCGTATTTGTG (site TCCTTTGCTCA),0.0203
25,TCGAAAACATGGACCGGTTTTCCCGGTAATCCGTATTTGTT (site TCGAAAACTAA),0

row,Sequence,recombinant UMI read abundance (log10)
1,TCGAATTCATGGACCGGTTTTCCCGGTAATCCGTATTTGCC (site TCAAATTCTGG),0
2,TCGAATTCATGGACCGGTTTTCCCGGTAATCCGTATTTGCC (site TCCAATTCTGG),0
3,TCGAATTCATGGACCGGTTTTCCCGGTAATCCGTATTTGCC (site TCGAATTCTGG),0
4,TCGAATTCATGGACCGGTTTTCCCGGTAATCCGTATTTGCC (site TCTAATTCTGG),0.193
5,TCGACACCATGGACCGGTTTTCCCGGTAATCCGTATTTGGC (site TCGACACCTGC),0
6,TCGACGGCATGGACCGGTTTTCCCGGTAATCCGTATTTGAG (site TCGACGGCTCT),0.666
7,TCGACTCCATGGACCGGTTTTCCCGGTAATCCGTATTTGTC (site TCGACTCCTGA),0
8,TCGAGTCCATGGACCGGTTTTCCCGGTAATCCGTATTTGAA (site TCGAGTCCTTT),0.307
9,TCGCCTGCATGGACCGGTTTTCCCGGTAATCCGTATTTGGT (site TCGCCTGCTAC),0.0077
10,TCGCTCCCATGGACCGGTTTTCCCGGTAATCCGTATTTGAA (site TCGCTCCCTTT),0.0848
11,TCGGAAACATGGACCGGTTTTCCCGGTAATCCGTATTTGGT (site TCGGAAACTAC),0.88
12,TCGGAACCATGGACCGGTTTTCCCGGTAATCCGTATTTGTA (site TCGGAACCTTA),0
13,TCGGAATCATGGACCGGTTTTCCCGGTAATCCGTATTTGCG (site TAGGAATCTCG),0.861
14,TCGGAATCATGGACCGGTTTTCCCGGTAATCCGTATTTGCG (site TCGGAATCTCG),1.26
15,TCGGAATCATGGACCGGTTTTCCCGGTAATCCGTATTTGCG (site TGGGAATCTCG),0.211
16,TCGGAATCATGGACCGGTTTTCCCGGTAATCCGTATTTGCG (site TTGGAATCTCG),1.03
17,TCGGACCCATGGACCGGTTTTCCCGGTAATCCGTATTTGAA (site TCGGACCCTTT),0.274
18,TCGGACTCATGGACCGGTTTTCCCGGTAATCCGTATTTGTT (site TCGGACTCTAA),3.01
19,TCGGCCCCATGGACCGGTTTTCCCGGTAATCCGTATTTGTT (site TCGGCCCCTAA),0.0126
20,TCGGGAACATGGACCGGTTTTCCCGGTAATCCGTATTTGAT (site TCGGGAACTAT),1.61
21,TCGGTACCATGGACCGGTTTTCCCGGTAATCCGTATTTGCC (site TCGGTACCTGG),0
22,TCGGTATCATGGACCGGTTTTCCCGGTAATCCGTATTTGGT (site TCGGTATCTAC),1.89
23,TCGGTTGCATGGACCGGTTTTCCCGGTAATCCGTATTTGGC (site TCGGTTGCTGC),0.849
24,TCGTTTCCATGGACCGGTTTTCCCGGTAATCCGTATTTGTA (site TCGTTTCCTTA),1.36
25,TCTAACCCATGGACCGGTTTTCCCGGTAATCCGTATTTGCA (site TCTAACCCTTG),0

row,Sequence,recombinant UMI read abundance (log10)
1,TCTACACCATGGACCGGTTTTCCCGGTAATCCGTATTTGAC (site TATACACCTGT),0.00982
2,TCTACACCATGGACCGGTTTTCCCGGTAATCCGTATTTGAC (site TCTACACCTGT),0
3,TCTACACCATGGACCGGTTTTCCCGGTAATCCGTATTTGAC (site TGTACACCTGT),0
4,TCTACACCATGGACCGGTTTTCCCGGTAATCCGTATTTGAC (site TTTACACCTGT),0
5,TCTACGTCATGGACCGGTTTTCCCGGTAATCCGTATTTGTC (site TCTACGTCTGA),0
6,TCTACTGCATGGACCGGTTTTCCCGGTAATCCGTATTTGCC (site ACTACTGCTGG),0
7,TCTACTGCATGGACCGGTTTTCCCGGTAATCCGTATTTGCC (site CCTACTGCTGG),0
8,TCTACTGCATGGACCGGTTTTCCCGGTAATCCGTATTTGCC (site GCTACTGCTGG),0
9,TCTACTGCATGGACCGGTTTTCCCGGTAATCCGTATTTGCC (site TCTACTGCTGG),0
10,TCTAGATCATGGACCGGTTTTCCCGGTAATCCGTATTTGCA (site TCTAGATCTTG),0
11,TCTAGGTCATGGACCGGTTTTCCCGGTAATCCGTATTTGTT (site TCTAGGTCTAA),0
12,TCTAGTTCATGGACCGGTTTTCCCGGTAATCCGTATTTGTG (site TCTAGTTCTCA),0.0111
13,TCTATAACATGGACCGGTTTTCCCGGTAATCCGTATTTGCT (site TCTATAACTAG),0
14,TCTGAGCCATGGACCGGTTTTCCCGGTAATCCGTATTTGAT (site TCTGAGCCTAT),0.00231
15,TCTGAGCCATGGACCGGTTTTCCCGGTAATCCGTATTTGTT (site TCTGAGCCTAA),0.0283
16,TCTGCGGCATGGACCGGTTTTCCCGGTAATCCGTATTTGCT (site TATGCGGCTAG),0.0269
17,TCTGCGGCATGGACCGGTTTTCCCGGTAATCCGTATTTGCT (site TCTGCGGCTAG),0.246
18,TCTGCGGCATGGACCGGTTTTCCCGGTAATCCGTATTTGCT (site TGTGCGGCTAG),0.0168
19,TCTGCGGCATGGACCGGTTTTCCCGGTAATCCGTATTTGCT (site TTTGCGGCTAG),0.0104
20,TCTGCTACATGGACCGGTTTTCCCGGTAATCCGTATTTGGT (site TCTGCTACTAC),0.0161
21,TCTGTGGCATGGACCGGTTTTCCCGGTAATCCGTATTTGCC (site TCTGTGGCTGG),0
22,TCTTAACCATGGACCGGTTTTCCCGGTAATCCGTATTTGTG (site TCTTAACCTCA),0.0128
23,TCTTACCCATGGACCGGTTTTCCCGGTAATCCGTATTTGCA (site TCTTACCCTTG),0
24,TCTTACGCATGGACCGGTTTTCCCGGTAATCCGTATTTGGC (site TCTTACGCTGC),0
25,TCTTCAACATGGACCGGTTTTCCCGGTAATCCGTATTTGTG (site TCTTCAACTCA),0.0171
